This note sets out measurements from patent US8674118B2, “Compounds and methods for the treatment or prevention of flavivirus infections” (priority 2005, dated 2014).

For the experiment, the system named is HCV RNA replication (replicon cell lines Huh-7, 5.2 and ET). The experiment is described as follows: Cell-Based Luciferase Reporter HCV RNA Replication Assay. To be noted: Huh-7, 5.2 or ET replicon cells, luciferase counts after 4 days incubation, read-out: IC50. (A reporter such as luciferase makes a cellular process visible.)

Counter-ions that a name gives are not always drawn. Like-named read-outs stand apart in the source and are kept apart here.

Consider `CS(=O)(=O)N1CCC(N(c2cc(C3=CCCCC3)sc2C(=O)O)C(=O)[C@H]2CC[C@H](C)CC2)CC1` [Compound 101, 5-cyclohex-1-enyl-3-[(1-methanesulfonyl-piperidin-4-yl)-(trans-4-methyl-cyclohexanecarbonyl)-amino]-thiophene-2-carboxylic acid], for which the IC50 (commonly the concentration at which inhibition is half-maximal) (Hepatitis C virus, Huh-7, 96 h) was under 5 µM. The same measure, in the same setting: as for `C[C@H]1CC[C@H](C(=O)N(c2cc(C3=CCCCC3)sc2C(=O)O)[C@H]2CC[C@@H](C)CC2)CC1` [Compound 53, 5-cyclohex-1-enyl-3-[(trans-4-methyl-cyclohexanecarbonyl)-(cis-4-methyl-cyclohexyl)-amino]-thiophene-2-carboxylic acid], the figure is under 5 µM; as for `COC1CCC(N(C(=O)C2CCC(C)CC2)c2cc(C3CCC(F)CC3)sc2C(=O)O)CC1` (stereo not drawn) [Compound 137, 5-(4-ciz-trans-fluoro-cyclohexyl)-3-[(4-trans-methoxy-cyclohexyl)-(4-trans-methyl-cyclohexanecarbonyl)-amino]-thiophene-2-carboxylic acid], under 5 µM; as for `C[C@H]1CC[C@H](C(=O)N(c2cc(C3=CCCCC3)sc2C(=O)O)[C@H]2CC[C@@H](n3cncn3)CC2)CC1` [Compound 41, 5-cyclohex-1-enyl-3-[(trans-4-methyl-cyclohexanecarbonyl)-(cis 4-[1,2,4]triazol-1-yl-cyclohexyl)-amino]-thiophene-2-carboxylic acid], under 5 µM. Still for that read-out and setting: next, `CN1C(=O)N(C)C2(CCC(N(c3cc(C4=CCC(C)(C)CC4)sc3C(=O)O)C(=O)[C@H]3CC[C@H](C)CC3)CC2)C1=O` (relative stereo) [Compound 75, 5-(4,4-dimethyl-cyclohex-1-enyl)-3-[(1,3-dimethyl-2,4-dioxo-1,3-diaza-spiro[4.5]dec-8-yl)-(trans-4-methyl-cyclohexanecarbonyl)-amino]-thiophene-2-carboxylic acid]: under 5 µM; `COC1CCC(N(C(=O)C2CCC(C)CC2)c2cc(C3CCC(=O)CC3)sc2C(=O)O)CC1` (stereo not drawn) [Compound 113, 3-[(4-trans-methoxy-cyclohexyl)-(4-trans-methyl-cyclohexanecarbonyl)-amino]-5-(4-oxo-cyclohexyl)-thiophene-2-carboxylic acid]: under 5 µM; `C[C@H]1CC[C@H](C(=O)N(c2cc(C3CCCCC3)sc2C(=O)O)[C@H]2CC[C@H](O)CC2)CC1` [Compound 2, 5-Cyclohexyl-3-[(trans-4-hydroxy-cyclohexyl)-(trans-4-methyl-cyclohexanecarbonyl)-amino]-thiophene-2-carboxylic acid]: under 5 µM. Still for that read-out and setting: as for `CO[C@H]1CC[C@H](N(c2cc(C3CCC(C(F)(F)F)CC3)sc2C(=O)O)C(=O)[C@H]2CC[C@H](C)CC2)CC1` (relative stereo) [Compound 108, 3-[(trans-4-methoxy-cyclohexyl)-(trans-4-methyl-cyclohexanecarbonyl)-amino]-5-(4-trifluoromethyl-cyclohexyl)-thiophene-2-carboxylic acid], the figure is under 5 µM. On to `COCC1CCC(N(C(=O)C2CCC(C)CC2)c2cc(C3=CCCCC3)sc2C(=O)O)CC1` (stereo not drawn) [Compound 131, 5-cyclohex-1-enyl-3-[(4-cis-methoxymethyl-cyclohexyl)-(4-trans-methyl-cyclohexanecarbonyl)-amino]-thiophene-2-carboxylic acid], for which the IC50 is under 5 µM. For `C[C@H]1CC[C@H](C(=O)N(c2cc(C3=CCCCC3)sc2C(=O)O)C2CC[S+]([O-])CC2)CC1` (relative stereo) [Compound 69, 5-cyclohex-1-enyl-3-[(trans-4-methyl-cyclohexanecarbonyl)-(1-oxo-hexahydro-1lambda*4*-thiopyran-4-yl)-amino]-thiophene-2-carboxylic acid], for the setting “Hepatitis C virus, Huh-7, 96 h”, the IC50 was under 5 µM. On the same count and under the same terms, next, `C[C@H]1CC[C@H](C(=O)N(c2cc(C3=CCCCC3)sc2C(=O)O)[C@H]2CC[C@H](F)CC2)CC1` [Compound 70, 5-cyclohex-1-enyl-3-[(trans-4-fluoro-cyclohexyl)-(trans-4-methyl-cyclohexanecarbonyl)-amino]-thiophene-2-carboxylic acid]: under 5 µM; `CC1CCC(C(=O)N(c2cc(C3=CCCCC3)sc2C(=O)O)C2CCC3(CC2)CC(=O)N(C)C3)CC1` (stereo not drawn) [Compound 84, 5-cyclohex-1-enyl-3-[(trans-4-methyl-cyclohexanecarbonyl)-cis-(2-methyl-3-oxo-2-aza-spiro[4.5]dec-8-yl)-amino]-thiophene-2-carboxylic acid]: under 5 µM; `CC1CCC(C(=O)N(c2cc(C3=CCC(O)CC3)sc2C(=O)O)C2CCC(O)CC2)CC1` (stereo not drawn) [Compound 34, RS-5-(4-hydroxy-cyclohex-1-enyl)-3-[(4-trans-hydroxy-cyclohexyl)-(4-trans-methyl-cyclohexanecarbonyl)-amino]-thiophene-2-carboxylic acid]: under 5 µM. Still for that read-out and setting: next, `CN(c1cc(C2=CCCCC2)sc1C(=O)O)C(=O)[C@H]1CC[C@H](C)CC1` [Compound 37, 5-cyclohex-1-enyl-3-[methyl-(trans-4-methyl-cyclohexanecarbonyl)-amino]-thiophene-2-carboxylic acid]: 5 to 25 µM; `CC1CCC(C(=O)N(c2cc(C3=CCCCC3)sc2C(=O)O)C2CCC(C(C)(C)C)CC2)CC1` (stereo not drawn) [Compound 44, 3-[(4-trans-tert-butyl-cyclohexyl)-(4-trans-methyl-cyclohexanecarbonyl)-amino]-5-cyclohex-1-enyl-thiophene-2-carboxylic acid]: 5 to 25 µM. Consider `CCN1CC2(CCC(N(C(=O)C3CCC(C)CC3)c3cc(C4=CCCCC4)sc3C(=O)O)CC2)CC1=O` (stereo not drawn) [Compound 130, 5-cyclohex-1-enyl-3-[cis(2-ethyl-3-oxo-2-aza-spiro[4.5]dec-8-yl)-(trans-4-methylcyclohexanecarbonyl)-amino]-thiophene-2-carboxylic acid], for which the IC50 is under 5 µM. Consider `CO[C@H]1CC[C@H](N(c2cc(C3=CCC(C(F)(F)F)CC3)sc2C(=O)O)C(=O)[C@H]2CC[C@H](C)CC2)CC1` (relative stereo) [Compound 124, 3-[(trans-4-methoxy-cyclohexyl)-(trans-4-methyl-cyclohexanecarbonyl)-amino]-5-(4-trifluoromethyl-cyclohex-1-enyl)-thiophene-2-carboxylic acid], for which, where the note is “Hepatitis C virus, Huh-7, 96 h”, the IC50 was under 5 µM.

As to `CC(C)(C)C1CC=C(c2cc(N(C(=O)[C@H]3CC[C@H](C)CC3)[C@H]3CC[C@H](O)CC3)c(C(=O)O)s2)CC1` (relative stereo) [Compound 13, 5-(4-Tert-butyl-cyclohex-1-enyl)-3-[(trans-4-hydroxy-cyclohexyl)-(trans-4-methyl-cyclohexanecarbonyl)-amino]-thiophene-2-carboxylic acid], the IC50 (Hepatitis C virus, Huh-7, 96 h) is under 5 µM. As for `CSCO[C@H]1CC[C@H](N(c2cc(C3=CCCCC3)sc2C(=O)O)C(=O)[C@H]2CC[C@H](C)CC2)CC1` [Compound 142, 5-cyclohex-1-enyl-3-[(trans-4-methyl-cyclohexanecarbonyl)-(trans-4-methylsulfanylmethoxy-cyclohexyl)-amino]-thiophene-2-carboxylic acid], the IC50 (Hepatitis C virus, Huh-7, 96 h) was under 5 µM.

With `C[C@H]1CC[C@H](C(=O)N(c2cc(C3=CCCCC3)sc2C(=O)O)C2CCOCC2)CC1` [Compound 29, 5-cyclohex-1-enyl-3-[(trans-4-methyl-cyclohexanecarbonyl)-(tetrahydro-pyran-4-yl)-amino]-thiophene-2-carboxylic acid], the IC50 (Hepatitis C virus, Huh-7, 96 h) is under 5 µM.

As for `COC(=O)C(NC(=O)O[C@H]1CC[C@H](N(c2cc(C3=CCCCC3)sc2C(=O)O)C(=O)[C@H]2CC[C@H](C)CC2)CC1)C(C)C` (relative stereo) [Compound 19, 5-Cyclohex-1-enyl-3-[[trans-4-(1-methoxycarbonyl-2-methyl-propylcarbamoyloxy)-cyclohexyl]-(trans-4-methyl-cyclohexanecarbonyl)amino]-thiophene-2-carboxylic acid], where the note is “Hepatitis C virus, Huh-7, 96 h”, the IC50 is under 5 µM.

Turning to `CC1(C)CCC(c2cc(N(C(=O)[C@H]3CC[C@H](C)CC3)[C@H]3CC[C@@H](n4cncn4)CC3)c(C(=O)O)s2)CC1` [Compound 117, 5-(4,4-dimethyl-cyclohexyl)-3-[(trans-4-methyl-cyclohexanecarbonyl)-(cis-4-[1,2,4]triazol-1-yl-cyclohexyl)-amino]-thiophene-2-carboxylic acid; hydrochloride], the IC50 (Hepatitis C virus, Huh-7, 96 h) was under 5 µM.

With `CC1(C)CCC(c2cc(N(C(=O)[C@H]3CC[C@H](C)CC3)[C@H]3CC[C@H](n4ccnn4)CC3)c(C(=O)O)s2)CC1` [Compound 135, 5-(4,4-dimethyl-cyclohexyl)-3-[(trans-4-methyl-cyclohexanecarbonyl)-(trans-4-[1,2,3]triazol-1-yl-cyclohexyl)-amino]-thiophene-2-carboxylic acid], the IC50 (Hepatitis C virus, Huh-7, 96 h) was under 5 µM.

Take `CC(C)N(C(=O)c1ccc(Cl)cc1Cl)c1cc(C2=CCCCC2)sc1C(=O)O` [Compound 31, 5-cyclohex-1-enyl-3-[(2,4-dichloro-benzoyl)-isopropyl-amino]-thiophene-2-carboxylic acid]: the IC50 (Hepatitis C virus, Huh-7, 96 h) lay in the range of 5 to 25 µM. Same read-out and setting: as for `COCO[C@H]1CC[C@H](N(c2cc(C3=CCCCC3)sc2C(=O)O)C(=O)[C@H]2CC[C@H](C)CC2)CC1` [Compound 24, 5-Cyclohex-1-enyl-3-[(trans-4-methoxymethoxy-cyclohexyl)-(trans-4-methyl-cyclohexanecarbonyl)-amino]-thiophene-2-carboxylic acid], the figure is under 5 µM; as for `CO[C@H]1CC[C@H](N(c2cc(C3=C(F)C(F)CCC3)sc2C(=O)O)C(=O)[C@H]2CC[C@H](C)CC2)CC1` (relative stereo) [Compound 120, 5-(2,3-difluoro-cyclohex-1-enyl)-3-[(trans-4-methoxy-cyclohexyl)-(trans-4-methyl-cyclohexanecarbonyl)-amino]-thiophene-2-carboxylic acid], under 5 µM; as for `C[C@H]1CC[C@H](C(=O)N(c2cc(C3=CCCCC3)sc2C(=O)O)C2CCSCC2)CC1` [Compound 42, 5-cyclohex-1-enyl-3-[(trans-4-methyl-cyclohexanecarbonyl)-(tetrahydrothiopyran-4-yl)-amino]-thiophene-2-carboxylic acid], under 5 µM.
